Experimental findings from publication PMC4945764, “Effect of flecainide derivatives on sarcoplasmic reticulum calcium release suggests a lack of direct action on the cardiac ryanodine receptor” (British Journal of Pharmacology, 2016) are described below.

In experiment [1] the target is T1, cardiac ryanodine receptor (RyR2) (Homo sapiens, UniProt Q92736).
T1 construct: recombinant eGFP-hRyR2, purified from HEK293 cells
Briefly: single-channel recording of purified hRyR2 in planar lipid bilayers; association and dissociation rates of block. The format is biochemical.

For experiment [2], the target named is T2, Nav1.5 channel (Homo sapiens, UniProt Q14524).
T2 construct: gene SCN5A; recombinant Nav1.5 in HEK293 (H-Flp/Nav1.5) cells
Briefly: INa recording, use-dependent block at […] Hz ([…] NU-FL). The class given is cell-based.

The target in experiment [3] is T2, Nav1.5 channel. Briefly: INa recording, use-dependent block at […] Hz ([…] QX-FL). The format is cell-based.
For experiment [4], the target named is T1, cardiac ryanodine receptor (RyR2). Briefly: single-channel recording of purified hRyR2 in planar lipid bilayers, +[…] mV, cytosolic to luminal K+ current. The class given is biochemical.

T1 sequence (Q92736 whole entry): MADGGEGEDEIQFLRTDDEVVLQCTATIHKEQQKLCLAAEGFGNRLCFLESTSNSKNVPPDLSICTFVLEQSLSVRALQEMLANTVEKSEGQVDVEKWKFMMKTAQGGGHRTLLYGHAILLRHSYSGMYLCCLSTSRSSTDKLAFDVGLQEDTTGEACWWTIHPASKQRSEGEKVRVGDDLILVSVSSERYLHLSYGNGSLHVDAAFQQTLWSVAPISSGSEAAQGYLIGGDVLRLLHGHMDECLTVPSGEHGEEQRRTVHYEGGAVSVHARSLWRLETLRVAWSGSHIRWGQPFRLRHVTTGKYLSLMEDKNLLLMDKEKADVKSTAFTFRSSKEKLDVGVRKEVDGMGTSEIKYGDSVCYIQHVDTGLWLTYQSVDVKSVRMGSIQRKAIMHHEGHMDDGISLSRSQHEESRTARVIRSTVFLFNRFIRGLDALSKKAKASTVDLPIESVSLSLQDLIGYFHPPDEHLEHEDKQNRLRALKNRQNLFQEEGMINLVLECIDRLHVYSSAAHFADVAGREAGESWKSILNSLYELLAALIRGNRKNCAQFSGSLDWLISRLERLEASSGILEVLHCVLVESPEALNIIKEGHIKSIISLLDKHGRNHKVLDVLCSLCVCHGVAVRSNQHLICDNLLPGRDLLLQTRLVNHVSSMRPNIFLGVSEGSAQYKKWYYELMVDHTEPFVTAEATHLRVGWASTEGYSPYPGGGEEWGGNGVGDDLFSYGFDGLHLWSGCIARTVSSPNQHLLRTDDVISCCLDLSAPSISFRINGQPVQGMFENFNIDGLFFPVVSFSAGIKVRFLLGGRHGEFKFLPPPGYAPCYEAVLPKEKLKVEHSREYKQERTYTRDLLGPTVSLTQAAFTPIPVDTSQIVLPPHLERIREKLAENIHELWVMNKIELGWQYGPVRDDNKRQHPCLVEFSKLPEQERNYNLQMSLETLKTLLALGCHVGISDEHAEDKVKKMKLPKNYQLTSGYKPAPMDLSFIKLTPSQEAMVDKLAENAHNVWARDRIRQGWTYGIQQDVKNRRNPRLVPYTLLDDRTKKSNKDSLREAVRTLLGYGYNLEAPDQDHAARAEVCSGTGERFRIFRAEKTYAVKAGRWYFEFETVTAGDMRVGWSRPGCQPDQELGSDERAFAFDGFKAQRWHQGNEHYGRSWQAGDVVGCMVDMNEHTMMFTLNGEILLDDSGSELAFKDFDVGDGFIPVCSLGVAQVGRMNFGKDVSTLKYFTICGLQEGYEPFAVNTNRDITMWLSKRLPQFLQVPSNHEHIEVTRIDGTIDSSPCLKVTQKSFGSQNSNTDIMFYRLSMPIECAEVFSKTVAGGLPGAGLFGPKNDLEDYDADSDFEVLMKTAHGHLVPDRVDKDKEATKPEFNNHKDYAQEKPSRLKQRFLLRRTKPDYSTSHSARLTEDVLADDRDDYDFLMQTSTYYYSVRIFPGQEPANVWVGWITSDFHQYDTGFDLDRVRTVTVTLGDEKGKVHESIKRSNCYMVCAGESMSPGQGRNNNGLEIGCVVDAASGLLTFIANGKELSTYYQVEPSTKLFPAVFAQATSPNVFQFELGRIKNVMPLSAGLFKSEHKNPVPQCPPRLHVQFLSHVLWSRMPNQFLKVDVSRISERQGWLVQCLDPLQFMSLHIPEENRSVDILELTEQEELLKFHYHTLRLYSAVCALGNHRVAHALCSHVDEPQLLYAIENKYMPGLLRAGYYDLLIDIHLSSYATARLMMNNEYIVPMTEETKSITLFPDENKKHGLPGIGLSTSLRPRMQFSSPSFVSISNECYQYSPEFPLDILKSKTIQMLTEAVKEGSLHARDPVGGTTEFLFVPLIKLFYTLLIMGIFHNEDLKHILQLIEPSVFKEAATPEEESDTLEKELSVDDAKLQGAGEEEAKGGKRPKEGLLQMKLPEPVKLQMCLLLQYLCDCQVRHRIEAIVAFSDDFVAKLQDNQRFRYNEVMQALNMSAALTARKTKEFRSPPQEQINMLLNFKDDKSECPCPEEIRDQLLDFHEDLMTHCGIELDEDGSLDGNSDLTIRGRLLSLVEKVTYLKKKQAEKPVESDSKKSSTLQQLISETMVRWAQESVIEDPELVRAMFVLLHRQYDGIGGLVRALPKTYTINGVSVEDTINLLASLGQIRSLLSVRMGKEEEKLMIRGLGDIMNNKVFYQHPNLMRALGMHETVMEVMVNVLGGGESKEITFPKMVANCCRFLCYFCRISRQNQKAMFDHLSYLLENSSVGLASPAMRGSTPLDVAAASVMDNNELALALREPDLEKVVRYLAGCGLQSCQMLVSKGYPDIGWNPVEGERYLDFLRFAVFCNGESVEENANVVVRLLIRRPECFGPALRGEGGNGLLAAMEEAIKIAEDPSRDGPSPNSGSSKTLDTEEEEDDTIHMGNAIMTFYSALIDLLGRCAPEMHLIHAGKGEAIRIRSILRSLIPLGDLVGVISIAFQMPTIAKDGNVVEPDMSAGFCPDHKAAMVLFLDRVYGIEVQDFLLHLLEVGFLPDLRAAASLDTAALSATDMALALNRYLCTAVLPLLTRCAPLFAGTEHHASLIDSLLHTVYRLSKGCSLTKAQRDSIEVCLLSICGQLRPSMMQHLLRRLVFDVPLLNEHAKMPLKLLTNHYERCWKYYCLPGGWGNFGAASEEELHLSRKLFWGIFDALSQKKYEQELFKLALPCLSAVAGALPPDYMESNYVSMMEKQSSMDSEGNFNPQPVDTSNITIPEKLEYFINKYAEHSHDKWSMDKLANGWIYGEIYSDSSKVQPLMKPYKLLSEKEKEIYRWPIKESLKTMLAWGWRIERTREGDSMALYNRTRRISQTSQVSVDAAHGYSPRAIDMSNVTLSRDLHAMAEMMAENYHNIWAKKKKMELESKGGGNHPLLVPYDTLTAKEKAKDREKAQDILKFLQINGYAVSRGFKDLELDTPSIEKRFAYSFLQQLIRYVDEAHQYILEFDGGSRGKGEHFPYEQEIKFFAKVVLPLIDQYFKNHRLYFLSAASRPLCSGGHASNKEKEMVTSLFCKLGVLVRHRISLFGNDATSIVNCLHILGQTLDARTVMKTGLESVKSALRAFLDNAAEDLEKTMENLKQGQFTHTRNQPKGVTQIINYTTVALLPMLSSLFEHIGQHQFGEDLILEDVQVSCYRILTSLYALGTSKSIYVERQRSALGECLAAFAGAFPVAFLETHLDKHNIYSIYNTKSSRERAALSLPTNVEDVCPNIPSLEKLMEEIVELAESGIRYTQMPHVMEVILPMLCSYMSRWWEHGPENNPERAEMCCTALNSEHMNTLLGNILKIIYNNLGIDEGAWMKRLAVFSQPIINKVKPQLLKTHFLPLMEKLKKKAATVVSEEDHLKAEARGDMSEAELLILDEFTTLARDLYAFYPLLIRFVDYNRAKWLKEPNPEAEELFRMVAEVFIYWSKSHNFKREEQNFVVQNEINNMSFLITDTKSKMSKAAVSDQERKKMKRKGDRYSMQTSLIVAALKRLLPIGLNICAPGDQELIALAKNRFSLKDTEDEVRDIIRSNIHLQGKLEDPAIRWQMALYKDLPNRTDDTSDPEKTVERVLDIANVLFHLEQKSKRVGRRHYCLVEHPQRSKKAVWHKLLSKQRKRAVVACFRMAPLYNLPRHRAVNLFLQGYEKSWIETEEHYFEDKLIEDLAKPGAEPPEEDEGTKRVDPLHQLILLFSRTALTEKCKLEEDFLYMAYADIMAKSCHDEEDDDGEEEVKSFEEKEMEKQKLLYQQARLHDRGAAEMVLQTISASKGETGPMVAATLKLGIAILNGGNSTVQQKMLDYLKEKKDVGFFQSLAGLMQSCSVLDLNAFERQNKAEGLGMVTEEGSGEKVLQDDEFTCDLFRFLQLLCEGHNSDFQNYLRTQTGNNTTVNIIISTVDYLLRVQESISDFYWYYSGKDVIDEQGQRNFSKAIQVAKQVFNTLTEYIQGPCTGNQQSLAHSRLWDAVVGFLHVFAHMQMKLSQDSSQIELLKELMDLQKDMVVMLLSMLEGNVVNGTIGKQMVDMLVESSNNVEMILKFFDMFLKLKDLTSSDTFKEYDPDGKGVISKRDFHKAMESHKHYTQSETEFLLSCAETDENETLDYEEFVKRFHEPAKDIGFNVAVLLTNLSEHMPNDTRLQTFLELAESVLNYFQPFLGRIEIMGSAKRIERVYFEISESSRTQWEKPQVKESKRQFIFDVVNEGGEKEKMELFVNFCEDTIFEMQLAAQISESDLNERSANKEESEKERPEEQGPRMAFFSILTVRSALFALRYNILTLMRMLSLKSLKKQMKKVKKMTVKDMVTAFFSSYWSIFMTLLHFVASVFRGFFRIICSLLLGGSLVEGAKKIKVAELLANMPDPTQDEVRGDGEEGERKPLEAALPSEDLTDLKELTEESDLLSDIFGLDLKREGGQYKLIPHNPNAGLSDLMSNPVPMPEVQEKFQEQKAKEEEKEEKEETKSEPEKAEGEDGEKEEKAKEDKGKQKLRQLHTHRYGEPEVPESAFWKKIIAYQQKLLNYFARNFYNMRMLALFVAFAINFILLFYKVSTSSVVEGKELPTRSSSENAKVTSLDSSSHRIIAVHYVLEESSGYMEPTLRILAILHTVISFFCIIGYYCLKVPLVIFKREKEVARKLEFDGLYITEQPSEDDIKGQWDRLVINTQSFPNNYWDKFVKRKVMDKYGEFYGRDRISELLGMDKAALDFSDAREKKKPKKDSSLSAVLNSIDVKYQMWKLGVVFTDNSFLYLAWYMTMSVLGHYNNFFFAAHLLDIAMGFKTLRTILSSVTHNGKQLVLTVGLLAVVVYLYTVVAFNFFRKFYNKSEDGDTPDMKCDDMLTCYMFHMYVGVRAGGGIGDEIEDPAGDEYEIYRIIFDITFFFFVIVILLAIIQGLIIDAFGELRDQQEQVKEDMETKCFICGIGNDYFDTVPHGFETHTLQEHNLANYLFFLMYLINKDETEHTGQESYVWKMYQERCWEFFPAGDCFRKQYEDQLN

A word on the kon: it is a measure of how fast the partners come together. A low value points to slower complex formation. Turning to `O=C(NCCN1CCOCC1)c1cc(OCC(F)(F)F)ccc1OCC(F)(F)F` [NU-FL], the kon in experiment [1] was determined as 6.2e+08 ± 5e+07 M⁻¹ s⁻¹. Moreover, in experiment [2], the “INa recording, use-dependent block at 10 Hz (10 and 100 μM NU-FL)” value was “Use‐dependent block (UDB) of voltage gated Na^+ channel current (INa) by flecainide analogues, NU‐FL and QX‐FL”.
Molecule `C[N+]1(C)CCCCC1CNC(=O)c1cc(OCC(F)(F)F)ccc1OCC(F)(F)F` (centres unmarked) [QX-FL] gave a kon in experiment [1] of 9.1e+08 ± 3e+07 M⁻¹ s⁻¹. Besides, in experiment [3], the “INa recording, use-dependent block at 10 Hz (10 μM QX-FL)” value is “Use‐dependent block (UDB) of voltage gated Na^+ channel current (INa) by flecainide analogues, NU‐FL and QX‐FL”.
By Kd is commonly meant the equilibrium constant for the complex coming apart. A high value points to a looser complex. For `O=C(NCC1CCCCN1)c1cc(OCC(F)(F)F)ccc1OCC(F)(F)F` (centres unmarked) [flecainide], in experiment [4], binding was characterised by a dissociation constant (Kd) of 13.1 ± 1.89 µM.
